The values below come from article PMC10041525, “New Dual Inhibitors of Bacterial Topoisomerases with Broad-Spectrum Antibacterial Activity and In Vivo Efficacy against Vancomycin-Intermediate Staphylococcus aureus” (Journal of Medicinal Chemistry, 2023).

For data set [1], the system named is Chinese hamster ovary K1 cells. The settings on record: 150 µM.
Data set [2] concerns Chinese hamster ovary K1 cells. As to the kind of experiment: in vitro micronucleus test. The settings on record: with S9, 150 µM.
In data set [3] the test system is H. influenzae ATCC 49247. Details: method as in earlier work. The note with it: QC range for H. influenzae ATCC 49247, ref CLSI; cited from earlier work.
In data set [4] the test system is Neisseria gonorrhoeae (n = 12). As to the kind of experiment: MIC broth microdilution at IHMA Europe. In kind it is cell-based. The settings on record: for MIC: Neisseria gonorrhoeae, read-out: MIC.
The test system of data set [5] is E. coli ATCC 25922. On the set-up: method as in earlier work. The note with it: QC range for E. coli ATCC 25922, ref CLSI; cited from earlier work.
Data set [6] concerns S. pneumoniae ATCC 49619. On the set-up: method as in earlier work. The settings on record: QC range for S. pneumoniae ATCC 49619, ref CLSI; cited from earlier work.
Data set [7] relates to N. gonorrhoeae ATCC 49226. As to the kind of experiment: IHMA QC MIC. In kind it is cell-based. The settings on record: Neisseria gonorrhoeae, ATCC49226; QC strain N. gonorrhoeae ATCC 49226, test date 2021-11-18; read-out: MIC. The source says: Supplement jm2c01905_si_004.xlsx, sheet "QC" | column: MIC [µg/mL]
The test system of data set [8] is N. gonorrhoeae ATCC 49226. Details: method as in earlier work. The settings on record: QC range for N. gonorrhoeae ATCC 49226, ref CLSI; cited from earlier work.

Molecules are shown by their SMILES. In brackets after ≈: the same amount, converted by molar mass. Like-named read-outs stand apart in the source and are kept apart here.

The term MIC denotes the lowest concentration that inhibits growth of the organism.

Turning to `c1ccc2c(c1)cc1ccc3cccc4ccc2c1c34` [Benzo[a]pyrene], in data set [1], the “% Cytostasis” value was found to be 8.3%. For the same compound, the No. binucleate cells in data set [2] is reported as 1702.
Turning to `COCC1=C(C(=O)O)N2C(=O)[C@@H](NC(=O)/C(=N\OC)c3csc(N)n3)[C@H]2SC1` [Cefpodoxime, cefpodoxime], the “MIC, CLSI Range” value in data set [3] is recorded as 0,25 - 1 µg/mL; in data set [5], 0,25 - 1 µg/mL; in data set [6], 0,03 - 0,12 µg/mL; in data set [8], 0,03 - 0,12 µg/mL. For the same compound, the “Cumulative % at MIC” value in data set [4] (MIC 0.015 µg/mL) was 8.3%; in data set [4] (MIC 0.03 µg/mL), 16.7%; in data set [4] (MIC 0.06 µg/mL), 41.7%; in data set [4] (MIC 0.5 µg/mL) it was 66.7%; in data set [4] (MIC 1 µg/mL), 83.3%; in data set [4] (MIC 2 µg/mL), 100.0%. For the same compound, in data set [4] (MIC […]), the “Cumulative % at MIC” value is listed as 58.3%. Also, the “No. of isolates at MIC” value in data set [4] (MIC 0.015 µg/mL) was determined as 1; in data set [4] (MIC 0.03 µg/mL), 1; in data set [4] (MIC 0.06 µg/mL), 3; in data set [4] (MIC 0.5 µg/mL), 1; in data set [4] (MIC 1 µg/mL) it was 2; in data set [4] (MIC 2 µg/mL), 2. In data set [4] (MIC […]), the “No. of isolates at MIC” value is recorded as 2. The minimum inhibitory concentration (MIC) in data set [4] (isolate IHMA 1123853) was determined as 1 µg/mL (≈ 2.34 µM); in data set [4] (isolate IHMA 1130935) it was 0.03 µg/mL (≈ 0.0702 µM); in data set [4] (isolate IHMA 1130989), 0.015 µg/mL (≈ 0.0351 µM); in data set [4] (isolate IHMA 1130991) it was 1 µg/mL (≈ 2.34 µM); in data set [4] (isolate IHMA 1137292), 0.5 µg/mL (≈ 1.17 µM); in data set [4] (isolate IHMA 1145734), 0.25 µg/mL (≈ 0.585 µM). Also, the MIC in data set [4] (isolate IHMA 1145735) was found to be 0.06 µg/mL (≈ 0.14 µM); in data set [4] (isolate IHMA 1165897), 0.06 µg/mL (≈ 0.14 µM); in data set [4] (isolate IHMA 1194748) it was 0.06 µg/mL (≈ 0.14 µM); in data set [4] (isolate IHMA 1194750), 0.25 µg/mL (≈ 0.585 µM); in data set [4] (isolate IHMA 1546199), 2 µg/mL (≈ 4.68 µM); in data set [4] (isolate IHMA 1546215), 2 µg/mL (≈ 4.68 µM). The MIC in data set [7] turned out to be 0.06 µg/mL (≈ 0.14 µM).
